Data taken from US11174243B2, “Succinate forms and compositions of Bruton's tyrosine kinase inhibitors” (Sunesis Pharmaceuticals, Inc., priority 2016, dated 2021).
pIC50: −log10 of the molar value. ≈ marks a conversion by molar mass, not a printed value.

Key:
BTK = target: T1, BTK (Homo sapiens, UniProt Q06187); assay: Phase 1a single-dose study in humans: BTK inhibition (pBTK) in whole blood; type: in vivo
T1 construct: from tissue; host or cells: human whole blood
Protocol: The primary endpoint of safety was assessed by monitoring adverse events (AEs), laboratory abnormalities, and cardiac findings (ECG). Secondary endpoints included evaluation of the PK parameters of area under the plasma concentration-time curve (AUC), maximum plasma concentration (Cmax), time of maximum concentration (Tmax), apparent volume of distribution (Vd/F), terminal elimination half-life (t1/2), terminal elimination rate constant (λz), and apparent clearance (Cl/F) as well as the PD parameter of BTK inhibition in whole blood. BTK inhibition was calculated based on phosphorylated BTK (pBTK) and total BTK (totBTK). All postdose blood samples and one predose sample were lysed in the presence of protease and phosphatase inhibitors (PPi); a second predose sample was lysed without PPi to estimate maximum reduction in pBTK attainable. The ratio of predose pBTK/totBTK without PPi was subtracted from each pBTK/totBTK with PPi, and % pBTK vs predose was calculated: […]

ITK = target: T2, ITK (Homo sapiens, UniProt Q08881); assay: In vitro kinase assay, ITK
T2 sequence (Q08881 1-620): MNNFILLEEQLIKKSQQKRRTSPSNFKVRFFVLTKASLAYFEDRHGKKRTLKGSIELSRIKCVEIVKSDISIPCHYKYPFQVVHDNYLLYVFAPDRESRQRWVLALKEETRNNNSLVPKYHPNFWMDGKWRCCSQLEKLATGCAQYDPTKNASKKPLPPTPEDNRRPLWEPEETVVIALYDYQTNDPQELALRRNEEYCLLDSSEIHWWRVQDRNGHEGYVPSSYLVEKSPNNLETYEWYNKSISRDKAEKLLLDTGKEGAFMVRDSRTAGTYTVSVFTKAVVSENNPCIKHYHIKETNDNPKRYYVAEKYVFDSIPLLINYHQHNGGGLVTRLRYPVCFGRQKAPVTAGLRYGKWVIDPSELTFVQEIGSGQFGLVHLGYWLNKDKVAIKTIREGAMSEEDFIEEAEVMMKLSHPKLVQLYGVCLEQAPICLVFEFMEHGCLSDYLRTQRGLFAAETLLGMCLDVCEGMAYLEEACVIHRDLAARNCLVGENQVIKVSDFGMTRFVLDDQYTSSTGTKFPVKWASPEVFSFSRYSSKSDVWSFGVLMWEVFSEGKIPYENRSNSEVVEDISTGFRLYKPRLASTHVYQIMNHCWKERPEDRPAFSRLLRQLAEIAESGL

CD86 expression = assay: CpG induced CD86 expression (flow cytometry); type: cell-based, human; details: 3.2 μM CpG stimulation, 1 μM
Protocol: Methods: Primary CLL B cells were isolated from the whole blood of consented patients by FICOLL density centrifugation and rosette-sep negative selection. Annexin V and propidium iodide flow cytometry was used to measure patient CLL cell viability and 7AAD was used to measure viability in stromal co-culture. CD40 and CD86 expression was evaluated via flow cytometry subsequent to sustained 3.2 μM CpG stimulation. BCR signaling in primary CLL cells was investigated by immunoblot succeeding 1 hour treatment and following 1 hour or 24 hours of incubation with Compound 1 in XLA cell lines. MTS values were read after 24 hours of drug incubation. ITK inhibition was investigated via immunoblot after stimulation with anti-CD3 and anti-CD28 and incubation with Compound 1 for 1 hour. Compound 1 was used at a concentration of 1 μM in preclinical studies unless otherwise noted.

TEC = target: T3, TEC (Homo sapiens, UniProt P42680); assay: In vitro kinase assay, TEC
T3 sequence (P42680 1-631): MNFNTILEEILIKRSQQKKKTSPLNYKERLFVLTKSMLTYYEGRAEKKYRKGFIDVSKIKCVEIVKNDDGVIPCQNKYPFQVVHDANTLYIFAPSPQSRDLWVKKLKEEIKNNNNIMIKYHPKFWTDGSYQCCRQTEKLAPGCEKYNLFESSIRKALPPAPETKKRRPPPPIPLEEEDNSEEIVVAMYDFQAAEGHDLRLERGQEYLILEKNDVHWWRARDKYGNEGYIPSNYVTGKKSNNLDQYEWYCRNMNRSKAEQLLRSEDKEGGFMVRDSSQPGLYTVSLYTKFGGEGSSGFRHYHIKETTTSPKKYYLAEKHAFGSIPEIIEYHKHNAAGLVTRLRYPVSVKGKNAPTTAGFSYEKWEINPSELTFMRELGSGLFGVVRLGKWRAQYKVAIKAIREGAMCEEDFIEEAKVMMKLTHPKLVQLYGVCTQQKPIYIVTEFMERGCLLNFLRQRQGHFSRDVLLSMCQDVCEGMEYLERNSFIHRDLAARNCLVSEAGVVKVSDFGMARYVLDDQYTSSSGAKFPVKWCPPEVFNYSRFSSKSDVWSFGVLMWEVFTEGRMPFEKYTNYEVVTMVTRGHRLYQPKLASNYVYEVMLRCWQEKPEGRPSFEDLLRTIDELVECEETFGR

[1] = Solubility of Compound 2 in solvent systems (slurries, HPLC); type: physicochemical; details: thermodynamic from solid, after one day at 20° C.
Protocol: Slurries were set up in the solvents reported in Table 1 by weighing approximately 200 mg of Compound 2, suspending the solid in 0.5 mL of solvent and checking that excess solid remained un-dissolved. The prepared samples were also used to calculate Compound 2 solubility in the solvent systems used.
The slurries prepared for the long term slurry experiments were sampled after one day at 20° C. to measure the solubility of Compound 2 in the solvent systems used. The solubility data were obtained by HPLC with respect to a response factor; six samples of Compound 2, dissolved in acetonitrile/methanol 40/60 at known concentration, were prepared and injected in HPLC. The resulting HPLC areas were used to calculate the HPLC response factor for Compound 2 (data not shown).

T1 sequence (Q06187 whole entry): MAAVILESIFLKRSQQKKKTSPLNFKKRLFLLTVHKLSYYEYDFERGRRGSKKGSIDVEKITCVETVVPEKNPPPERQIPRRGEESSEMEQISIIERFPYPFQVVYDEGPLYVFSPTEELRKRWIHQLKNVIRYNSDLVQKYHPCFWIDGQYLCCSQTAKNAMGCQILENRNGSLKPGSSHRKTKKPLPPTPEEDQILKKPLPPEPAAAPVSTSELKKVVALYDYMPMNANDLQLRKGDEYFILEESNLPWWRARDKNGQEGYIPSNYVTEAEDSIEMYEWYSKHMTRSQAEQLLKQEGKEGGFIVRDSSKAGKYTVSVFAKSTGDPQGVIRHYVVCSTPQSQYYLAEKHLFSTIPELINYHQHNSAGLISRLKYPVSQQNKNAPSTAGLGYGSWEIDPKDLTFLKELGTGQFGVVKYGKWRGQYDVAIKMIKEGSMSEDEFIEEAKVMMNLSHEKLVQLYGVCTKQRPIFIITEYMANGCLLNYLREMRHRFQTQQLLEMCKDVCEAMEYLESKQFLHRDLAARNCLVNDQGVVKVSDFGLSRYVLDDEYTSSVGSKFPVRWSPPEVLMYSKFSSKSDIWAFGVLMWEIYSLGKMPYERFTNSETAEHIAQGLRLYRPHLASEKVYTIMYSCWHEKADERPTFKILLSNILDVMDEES

| Structure (SMILES) | % BTK inhibition (BTK; Compound 1 plasma concentrations lower or close to 100 ng/mL) [%] | inhibition of pBTK (BTK; Compound 1 plasma concentrations ≥200 ng/mL) [%] | inhibition of pBTK (BTK; all dose levels, rapid, profound and prolonged, FIG. 13) [%] | inhibition (pBTK) (BTK; plasma concentrations above 1000 ng/mL, most of the subjects, largely around 100%) [%] | pIC50 (ITK) | decrease of CpG induced CD86 expression (CD86 expression) [%] | pIC50 (TEC) | solubility at 1 day ([1]; organic solvent or mixture, 1,4-dioxane) [mg/mL] | solubility at 1 day ([1]; organic solvent or mixture, 2-propanol/water 90/10) [mg/mL] | solubility at 1 day ([1]; organic solvent or mixture, 2-propanol) [mg/mL] | solubility at 1 day ([1]; organic solvent or mixture, Acetone) [mg/mL] | solubility at 1 day ([1]; organic solvent or mixture, Cyclohexanone) [mg/mL] | solubility at 1 day ([1]; organic solvent or mixture, Ethanol/water 90/10) [mg/mL] | solubility at 1 day ([1]; organic solvent or mixture, Ethanol) [mg/mL] | solubility at 1 day ([1]; organic solvent or mixture, Ethyl acetate) [mg/mL] | solubility at 1 day ([1]; organic solvent or mixture, Isopropyl acetate) [mg/mL] | solubility at 1 day ([1]; organic solvent or mixture, Methanol/water 90/10) [mg/mL] | solubility at 1 day ([1]; organic solvent or mixture, Methanol) [mg/mL] | solubility at 1 day ([1]; organic solvent or mixture, Tert-butylmethyl ether) [mg/mL] | solubility at 1 day ([1]; Water) [mg/mL] |
| --- | --- | --- | --- | --- | --- | --- | --- | --- | --- | --- | --- | --- | --- | --- | --- | --- | --- | --- | --- | --- |
| NC(=O)[C@H]1CCN(c2ncnc(N)c2F)C[C@@H]1N1CCC[C@@H](Nc2cc(Cl)cc(C(F)(F)F)c2)C1=O [Compound 1, (3R,3′R,4′S)-1′-(6-amino-5-fluoropyrimidin-4-yl)-3-((3-chloro-5-(trifluoromethyl)phenyl)amino)-2-oxo-[1,3′-bipiperidine]-4′-carboxamide] | ≤ 75 | ≥ 85 | ~100 | > 85 | 7.62 | 15.7 | 7.72 |  |  |  |  |  |  |  |  |  |  |  |  |  |
| NC(=O)[C@H]1CCN(c2ncnc(N)c2F)C[C@@H]1N1CCC[C@@H](Nc2cc(Cl)cc(C(F)(F)F)c2)C1=O [Compound 2] |  |  |  |  |  |  |  | 22 (≈ 41.5 mM) | 41 (≈ 77.4 mM) | 11 (≈ 20.8 mM) | 11 (≈ 20.8 mM) | 16 (≈ 30.2 mM) | 49 (≈ 92.5 mM) | 21 (≈ 39.6 mM) | 2 (≈ 3.77 mM) | 1 (≈ 1.89 mM) | 100 (≈ 189 mM) | 103 (≈ 194 mM) | 1 (≈ 1.89 mM) | 1 (≈ 1.89 mM) |
